{"source": "patent US10306895B2", "about": "“Plant defense signaling peptides and applications thereof” (Academia Sinica, priority 2014, dated 2019)", "key": {"Pst DC3000 [1]": {"test_system": "Pst DC3000", "settings": "seedlings treated with 50 mM NaCl for 24 hours, with or without 250 nM AtCAPE1 for 6 hours", "protocol": "5 days Arabidopsis seedlings treated with 50 mM NaCl for 24 hours and following the treatment of with or without 250 nM AtCAPE1 for 6 hours. The infection symptoms were observed 4 days after Pst DC3000 inoculation. The bacterial numbers were calculated 7 days after inoculation and represented as log colony-forming units (Log CFU) per g leaf tissue. Data represent the means and SD of three biological samples.\nPst DC3000 or hrcC^− were grown in water- or peptide-treated plants for several days to observe the symptoms and then the bacteria were collected from the leaves and evaluated by bacterial titers according to a method outlined previously (Zimmerli et al., 2000)."}, "[2]": {"test_system": "JA and JA-Ile accumulation", "assay": "Jasmonate hormone quantitation by LC-MS/MS in excised tomato plants", "assay_type": "in vivo, Solanum lycopersicum (tomato)", "settings": "365 nM peptide in buffer through the cut stem of excised plants, 2 and 4 hours", "protocol": "The plants treated with 10 mM phosphate buffer (buffer), 365 nM systemin (Sys) or 365 nM CAPE1 in buffer through the cut stem for 2 and 4 hours (n=3). The quantity of JA and JA-Ile were quantified by LC-SRM-MS and calculated by the abundance of spiked standard H2JA. Data represent the means and SD of three independent biological replicates.\nTo compare the jasmonates induced by the peptides, the excised tomato plants were treated with 10 mM phosphate buffer, 365 nM systemin or 365 nM CAPE1 in buffer through the cut stem for 2 and 4 hours (Schaller et al., 1995; Howe et al., 1996).\nAfter peptide treatment, the metabolites were extracted from leaf tissues for phytohormone quantitation. The extraction procedure was modified from a previously published protocol (Pan et al., 2010). The leaf tissues (about 0.6 g fresh weight) were ground into powder under liquid nitrogen and transferred to a 50 ml screw-cap tube. The frozen leaf powder was dissolved in 6 ml extraction solvent and d6-SA (3 ng to 0.6 g leaf tissue) and H2JA (15 ng to 0.6 g leaf tissue) were added as internal standards. The samples were extracted by shaking at a speed of 100 rpm at 4° C. for 30 minutes and then 12 ml dichloromethane was added to each sample and shaken at 100 rpm at 4° C. for 30 minutes. The samples were centrifuged at 13,000×g at 4° C. for 5 minutes, and two phases were formed. […]"}, "[3]": {"test_system": "PR-1b and WRKY53 gene expression", "assay": "qRT-PCR of defense genes in tomato leaves pretreated with cleavage motif peptide and challenged with Pst DC3000 hrcC-", "assay_type": "in vivo", "settings": "1 μM CNYDPV pretreatment for 2 h, then Pst DC3000 hrcC- challenge for 2 h", "procedure": "Relative expression levels of PR-1b and WRKY53 were analyzed by qRT-PCR 2 h after challenge of 10^7 cfu/mL Pst DC3000 hrcC^− or buffer in tomato leaves, which was pretreated with water, 100 nM CAPE1 or 1 μM CNYDPV for 2 h, respectively.\nQuantitative real-time PCR (qRT-PCR) was used to validate the expression of some specific genes. Three biological replicates were used for qRT-PCR analyses. The qRT-PCR was performed using SYBR Green reagent and ABI 7500 Real Time PCR systems (Foster City, Calif.). The PCR cycling steps were 50° C. for 2 min and 94° C. for 10 min for initial steps and followed by 95° C. for 15 s and 60° C. for 1 min for 40 cycles. The gene expressions across different samples were normalized with internal control EF-1α or Ubi3. The melting curve was used to verify the specificity of the PCR product."}, "Pst DC3000 [4]": {"test_system": "Pst DC3000", "assay": "Pathogen challenge of presprayed Arabidopsis plants", "assay_type": "in vivo, Pseudomonas syringae pv. tomato", "settings": "plants sprayed with 100 nM peptide for 2 hours prior to inoculation", "protocol": "The infection symptoms were observed 4 days after inoculation. The bacterial numbers were calculated 4 days after inoculation and are represented as log colony-forming units (Log CFU) per g leaf tissue. Data represent the means and SD of three biological samples.\nTo test the anti-pathogen activity induced by peptides in Arabidopsis, the plants were sprayed with 100 nM AtCAPE1, AtCAPE9, 100 nM flg22 or water, respectively, for 2 hours prior to pathogen challenge.\nThe bacterial pathogen Pseudomonas syringae pv. tomato DC3000 (Pst DC3000) or Pst DC3000 hrcC^− were grown on King's B (KB) agar medium containing 100 mg/L rifampicin for 2 days at 28° C. Before the challenge, the bacteria were cultured in KB liquid medium at 28° C. with 230 rpm shaking overnight. The bacteria were pelleted by centrifugation and resuspended in 10 mM MgSO4 at A600=0.25 (about 10^8 cfu/ml)."}, "[5]": {"test_system": "Pseudomonas syringae pv. tomato DC3000 (Pst DC3000)", "assay_type": "in vivo", "procedure": "(a) Changes of the larval sizes after feeding with water or 250 nM CAPE1 treated tomato leaves. The larval weights of thirty larvae were recorded each day. (b) The Pst DC3000 infection phenotypes of the plants presprayed with water or 100 nM CAPE1 peptide for 2 hours (n=3) prior to pathogen inoculation. […] All statistically significant differences between the CAPE1- and water-treated samples are indicated with * (P<0.05) or *** (P<0.001) based on Student's t-test.\n(§1) (a) The level of SA induced by CAPE1 and flg22. The excised plants were pretreated with 10 mM phosphate buffer (buffer) or 365 nM CAPE1 or 365 nM flg22 in buffer through the cut stem for 8 hours (n=3). The quantity of SA was quantified by LC-SRM-MS and calculated based on the abundance of spiked SA isotopic standard (d6-SA). (b) The relative expression of WRKY53 and PR-1b were quantified by comparing the expression levels in untreated detached leaves with the detached leaves treated with water, 250 nM CAPE1 or 250 nM flg22 for 2 hours (n=4). The internal control Ubi3 was used for normalization. (c) The Pst DC3000 infection phenotypes for plants presprayed with water, 100 nM CAPE1 or 100 nM flg22 peptide for 2 hours (n=3) prior to the pathogen inoculation. The infection symptoms were observed 4 days after inoculation. […]"}, "SA accumulation": {"test_system": "SA accumulation", "assay": "Salicylic acid quantitation by LC-MS/MS in excised tomato plants", "assay_type": "in vivo, Solanum lycopersicum (tomato)", "settings": "365 nM peptide supplied to excised plants through cut stem, 8 hours", "procedure": "as §1, with “normalization.” for “normalization. (c) The Pst DC3000 infection phenotypes for plants presprayed with water, 100 nM CAPE1 or 100 nM flg22 peptide for 2 hours (n=3) prior to the pathogen inoculation. The infection symptoms were observed 4 days after inoculation.”\nAfter peptide treatment, the metabolites were extracted from leaf tissues for phytohormone quantitation. […] The dried samples were dissolved in 300 μl methanol, mixed well and centrifuged at 10,000×g at 4° C. for 5 minutes and then the supernatant was transferred to the sample vial for targeted quantitation analysis using LC-MS/MS.\nFor phytohormone quantitation, a linear ion trap-orbitrap mass spectrometer (Orbitrap Elite, Thermo Fisher Scientific, Bremen, Germany) coupled online with a UHPLC system (ACQUITY UPLC, Waters, Millford, Mass.) was used. […] The fragmentation reactions of m/z 137.02 to 93.03 for SA, 209.12 to 59.01 for JA, 322.20 to 130.09 for JA-Ile, 141.05 to 97.06 for d6-SA and 211.13 to 59.01 for H2JA were selected for quantitation. […]"}, "[6]": {"test_system": "WRKY53 and PR-1b gene expression", "assay": "qRT-PCR of WRKY53 and PR-1b in detached tomato leaves", "assay_type": "in vivo, Solanum lycopersicum (tomato)", "settings": "250 nM peptide, 2 hours", "procedure": "(a) The level of SA induced by CAPE1 and flg22. The excised plants were pretreated with 10 mM phosphate buffer (buffer) or 365 nM CAPE1 or 365 nM flg22 in buffer through the cut stem for 8 hours (n=3). The quantity of SA was quantified by LC-SRM-MS and calculated based on the abundance of spiked SA isotopic standard (d6-SA). (b) The relative expression of WRKY53 and PR-1b were quantified by comparing the expression levels in untreated detached leaves with the detached leaves treated with water, 250 nM CAPE1 or 250 nM flg22 for 2 hours (n=4). The internal control Ubi3 was used for normalization. (c) The Pst DC3000 infection phenotypes for plants presprayed with water, 100 nM CAPE1 or 100 nM flg22 peptide for 2 hours (n=3) prior to the pathogen inoculation. The infection symptoms were observed 4 days after inoculation. […] A statistically significant difference compared with the correspondingly treated water (or buffer) samples is indicated with ** (P<0.01) or *** (P<0.001) based on Student's t-test.\nQuantitative real-time PCR (qRT-PCR) was used to validate the expression of some specific genes. Three biological replicates were used for qRT-PCR analyses. The qRT-PCR was performed using SYBR Green reagent and ABI 7500 Real Time PCR systems (Foster City, Calif.). […]"}, "[7]": {"test_system": "WRKY53, PR-1b, Adi3 and ERF5 gene expression", "settings": "30 minute or 6 hours treatment of flg22 on tomato; cited from earlier work"}}, "note": "Ends that are not written are not given here.", "data": [{"molecule": "[Cl-].[Na+]", "note": "[salt, NaCl]", "values": [{"measurement": "anti-pathogen activity in Arabidopsis after salt treatment", "setting": "Pst DC3000 [1]", "value": "enhance the anti-pathogen activity"}]}, {"molecule": "AVQSKPPSKRDPPKMQTD [systemin]", "values": [{"measurement": "induction of JA and JA-Ile", "setting": "[2]", "value": "significantly induced by treatment for 2 hours"}]}, {"molecule": "CNYDPV", "values": [{"measurement": "defense gene expression (PR-1b and WRKY53) in tomato", "setting": "[3]", "value": "decreased"}]}, {"molecule": "PAGNYIGARPY (listed as Arabidopsis thaliana) [AtCAPE1]", "values": [{"measurement": "immunity against Pst DC3000 infection in Arabidopsis", "setting": "Pst DC3000 [4]", "value": "increase immunity against Pst DC3000 infection"}]}, {"molecule": "PRGNYVNEKPY (listed as Arabidopsis thaliana) [AtCAPE9]", "values": [{"measurement": "immunity against Pst DC3000 infection in Arabidopsis", "setting": "Pst DC3000 [4]", "value": "increase immunity against Pst DC3000 infection"}]}, {"molecule": "PVGNWIGQRPY [CAPE1, PVGNWIGQRPY]", "values": [{"measurement": "induction of the hypersensitive response (HR)", "setting": "[5]; in vivo", "value": "without induction of the HR"}]}, {"molecule": "QRLSTGSRINSAKDDAAGLQIA [flg22]", "values": [{"measurement": "plant resistance to Pst DC3000 infection in tomato", "setting": "[5]; plants sprayed with 100 nM peptide for 2 hours prior to inoculation", "value": "resulted in plant resistance to Pst DC3000 infection"}, {"measurement": "induction of SA", "setting": "SA accumulation", "value": "significantly induced SA"}, {"measurement": "WRKY53 expression", "setting": "[6]", "value": "highly induced"}, {"measurement": "PR-1b, Adi3 and ERF5 induction (public RNA-seq data)", "setting": "[7]", "value": "could not be significantly induced"}, {"measurement": "WRKY53 induction (public RNA-seq data)", "setting": "[7]", "value": "could be induced"}]}]}
